Reference: patent US12269825B2, “Organic compounds” (INTRA-CELLULAR THERAPIES, INC., priority 2014, dated 2025)

How the values were obtained:
[1] = Human plasma levels of Compounds Q through T after oral dosing with the Compound of Formula Q; format: in vivo; conditions: day 8 after 7 day dosing (120 mg, 4 doses/day) with the Compound of Formula Q
Protocol: (§1) In addition, the in-vivo metabolism of the Compound of Formula Q is studied after oral administration to rats, dogs and humans. Plasma levels after administration are determined in all three species for the Compounds of Formula Q through T. The results of the studies indicate that metabolism of the Compound of Formula Q is rapid, and that the N-demethyl compounds are highly polar and excreted rapidly. Results of human plasma studies on day 8 after 7 day dosing (120 mg, 4 doses/day) with the Compound of Formula Q are shown below: […]

CYP 3A4 = target: T1, CYP 3A4 (Homo sapiens, UniProt P08684); assay: In-vitro metabolism using subcellular fractions and isolated hepatocytes: N-demethylation; format: in vitro ADME
T1 construct: from tissue
From the text: (§2) The in-vitro metabolism of the Compound of the Formula Q and its metabolites is studied using subcellular fractions and isolated hepatocytes. […] These two reductions are both catalyzed in the reverse direction (oxidation) by CYP 3A4.

ketone reductase = assay: In-vitro metabolism using subcellular fractions and isolated hepatocytes: ketone reduction; format: in vitro ADME; conditions: forms Compounds of Formula S and T, respectively
From the text: as §2

[2] = In-vivo metabolism after oral administration; conditions: oral administration to rats, dogs and humans
Protocol: as §1

T1 sequence (P08684 whole entry, species assumed): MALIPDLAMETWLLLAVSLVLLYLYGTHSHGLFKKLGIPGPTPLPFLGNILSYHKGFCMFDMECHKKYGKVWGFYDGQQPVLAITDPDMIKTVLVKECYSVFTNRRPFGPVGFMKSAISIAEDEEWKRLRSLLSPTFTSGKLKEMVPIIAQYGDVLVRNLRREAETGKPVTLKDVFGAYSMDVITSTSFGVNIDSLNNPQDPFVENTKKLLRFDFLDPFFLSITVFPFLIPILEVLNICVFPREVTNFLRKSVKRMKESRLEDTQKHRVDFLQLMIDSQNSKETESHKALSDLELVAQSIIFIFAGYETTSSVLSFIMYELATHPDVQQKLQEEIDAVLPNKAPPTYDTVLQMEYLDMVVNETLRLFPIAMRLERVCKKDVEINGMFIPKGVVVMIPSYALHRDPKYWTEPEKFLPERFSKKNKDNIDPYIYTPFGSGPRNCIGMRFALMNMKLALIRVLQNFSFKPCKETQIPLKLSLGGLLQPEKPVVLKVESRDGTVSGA

Compound | AUC [1] [ng·h/mL] | Cmax [1] [ng/mL] | Tmax [1] [h] | metabolic route: N-demethylation (CYP 3A4) | metabolic route: ketone reduction (ketone reductase) | rate of metabolism in vivo [2]
O=C(CCCN1CC[C@H]2[C@@H](C1)c1cccc3c1N2CCN3)c1ccc(F)cc1 [Compound R] | 170 | 37 | 2.5 | – | – | –
CN1CCN2c3c(cccc31)[C@@H]1CN(CCCC(O)c3ccc(F)cc3)CC[C@@H]12 (stereo partly drawn) [Compound S] | 906 | 79 | 3.5 | – | – | –
CN1CCN2c3c(cccc31)[C@@H]1CN(CCCC(=O)c3ccc(F)cc3)CC[C@@H]12 [Compound Q, 4-((6bR,10aS)-3-methyl-2,3,6b,9,10,10a-hexahydro-1H-pyrido[3′,4′:4,5]pyrrolo[1,2,3-de]quinoxalin-8(7H)-yl)-1-(4-fluorophenyl)-1-butanone] | 347 | 78 | 2.5 | N-demethylated to the Compound of Formula R via the P450 cytochrome oxidase isoform 3A4 (CYP 3A4) | undergo ketone reduction via the enzyme ketone reductase | rapid
OC(CCCN1CC[C@H]2[C@@H](C1)c1cccc3c1N2CCN3)c1ccc(F)cc1 (stereo partly drawn) [Compound T] | 517 | 38 | 6 | – | – | –
